System: Vesicular Stomatitis Virus

Substance: Polysorbate 80
- virus inactivation by excipient: no appreciable virus inactivation occurred
